Test results taken from patent US20080226587A1, “METHODS AND COMPOSITIONS FOR IMMUNOMODULATION” (priority 2006, published 2008).

System: DDM-reactive J.RT3/CD8-2 cells
Assay: T cell stimulation by DDM after proteinase K or pronase treatment
Type: cell-based
Conditions: 4 hours at 40° C.
Text: FIG. 4B is a graph depicting the proliferative response of DDM-reactive J.RT3/CD8-2 cells stimulated in the presence of mock treated DDM, DDM treated with proteinase K, DDM treated with pronase, or no antigen.
The Nex antigen is the second peptidic antigen shown to be presented by CD1. The other one, DDM, is presented by CD1a. Although processing of proteins for presentation on MHC Class I and Class II molecules is well characterized, little is known about processing of CD1-presented peptides. […] DDM has no such cleavage sites for proteases. To examine the protease sensitivity of Nex, Nex and DDM were treated with non-specific proteases and T cell stimulation by each antigen was examined.
Pronase is a mixture of endopeptidases and exopeptidases (carboxypeptidases and aminopeptidases) which digests denatured and native proteins into individual amino acids. Proteinase K is an endopeptidase with a preference for cleavage between an aliphatic, aromatic, or hydrophobic and any other amino acid, however, it will digest any peptidic bond if added in excess and over long incubation periods. […]
To test whether treated Nex mixtures were toxic to T cells, T cell stimulation was measured in the presence of a high concentration (10 μg/ml) of treated Nex and a suboptimal concentration of untreated Nex. […]

didehydroxymycobactin [DDM]
ability to stimulate T cell proliferation after protease treatment: did not diminish
